According to ChEMBL document CHEMBL1127537, “Synthesis and characterization of [125I]-N-(N-benzylpiperidin-4-yl)-4- iodobenzamide, a new sigma receptor radiopharmaceutical: high-affinity binding to MCF-7 breast tumor cells” (J Med Chem, 1994):
pKi: −log10 of the molar value.

What was measured:
Sigma 2 receptor = assay: Binding affinity against sigma-2 receptor in rat liver using radioligand [3H]DTG in the presence of dextrallorphan.
D(2) dopamine receptor = D(2) dopamine receptor (Rattus norvegicus, UniProt P61169); assay: Binding affinity against D-2 dopamine receptor in rat brain membranes using [3H](-)-sulpiride as radioligand.; assay type: cell membranes
Sequence of D(2) dopamine receptor (P61169 whole entry): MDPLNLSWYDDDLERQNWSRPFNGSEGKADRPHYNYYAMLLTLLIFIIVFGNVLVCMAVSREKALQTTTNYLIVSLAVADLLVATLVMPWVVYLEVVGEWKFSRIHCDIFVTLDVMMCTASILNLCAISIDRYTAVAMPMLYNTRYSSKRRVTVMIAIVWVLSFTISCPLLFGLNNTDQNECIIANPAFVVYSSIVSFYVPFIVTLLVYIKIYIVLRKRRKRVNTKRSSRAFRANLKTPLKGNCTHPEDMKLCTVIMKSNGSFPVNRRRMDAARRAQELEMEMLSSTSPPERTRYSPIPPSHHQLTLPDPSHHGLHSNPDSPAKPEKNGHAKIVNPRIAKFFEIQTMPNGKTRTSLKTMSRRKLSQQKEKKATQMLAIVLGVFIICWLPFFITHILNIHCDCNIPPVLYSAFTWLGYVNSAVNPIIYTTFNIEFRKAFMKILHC

Glutamate NMDA receptor = assay: Binding affinity against phencyclidine receptor in rat brain membranes using radioligand [3H]TCP.; assay type: cell membranes
[1] = molecular target: Muscarinic acetylcholine receptor; assay: Binding affinity against muscarinic receptor in rat brain membranes using radioligand [H}QNB.; assay type: cell membranes

pKi (Sigma 2 receptor)	pKi (D(2) dopamine receptor)	pKi (Glutamate NMDA receptor)	Ki [1] [nM]	Compound
7.53	7.20	< 4.00	> 100000	O=C(NC1CCN(Cc2ccccc2)CC1)c1ccccc1I
7.60	6.42	< 4.00	> 100000	O=C(NC1CCN(Cc2ccccc2)CC1)c1ccc(I)cc1
7.07	7.61	< 4.00	> 100000	O=C(NC1CCN(Cc2ccccc2)CC1)c1cccc(I)c1
